The source of these data is US12590062B2, “PD-1/PD-L1 inhibitors” (Gilead Sciences, Inc., priority 2017, dated 2026).

Structures are written as SMILES. Bounds are passed on as bounds.

The target in one test is T1, PD-L1 (Homo sapiens, UniProt Q9NZQ7).
T1 construct: determine if they can specifically dimerize the extracellular domains of PD-L1
Put plainly: PD-L1/PD-L1 dimerization biochemical protein-protein interaction assay (ALPHA). It is filed as binding. The settings on record: compound-induced PD-L1 dimerization, head prints '1 nM' (0.5 nM His-tagged PD-L1 and 0.5 nM FLAG-tagged PD-L1), read-out: AC50 PDL1 Dimer Alpha 1 nM. The method, boiled down: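 ALPHA proximity assay of compound-induced dimerization of 0.5 nM His-tagged and 0.5 nM FLAG-tagged PD-L1 extracellular domains in Hepes pH 7.4 buffer, 2 h at 25 °C. Anti-His acceptor then anti-FLAG donor beads, 60 min each; AC50 from four-parameter fit.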

Another test deals with T2, PD-1/PD-L1 interaction (Homo sapiens, UniProt Q9NZQ7).
T2 construct: expressed in transfected cells; host or cells: CHO cells (aAPC-PD-L1) co-cultured with Jurkat cells overexpressing PD-1 and an NFAT-luciferase reporter
T2 sequence (Q9NZQ7 19-290): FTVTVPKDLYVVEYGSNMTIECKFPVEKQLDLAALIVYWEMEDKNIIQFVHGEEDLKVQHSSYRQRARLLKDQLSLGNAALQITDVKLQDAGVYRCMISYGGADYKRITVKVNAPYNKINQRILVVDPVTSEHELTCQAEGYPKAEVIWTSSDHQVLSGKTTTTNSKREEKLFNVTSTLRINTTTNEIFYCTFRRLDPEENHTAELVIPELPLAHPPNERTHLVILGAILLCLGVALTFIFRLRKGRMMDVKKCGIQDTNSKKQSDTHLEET
Put plainly: PD-1/PD-L1 NFAT reporter co-culture assay. Type of test: cell-based. The settings on record: Jurkat PD-1 NFAT-luciferase cells co-cultured with aAPC-PD-L1 CHO cells, 6 hrs at 37° C.; read-out: EC50 NFAT Luciferase. Summed up:
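Jurkat cells overexpressing PD-1 with NFAT-driven luciferase were mixed with compound in RPMI 1640/2% FBS and seeded onto overnight-plated CHO aAPC-PD-L1 cells expressing surface anti-CD3 and PD-L1. Co-culture ran 6 h at 37 °C; luminescence read with ONE-Glo; EC50 from four-parameter fit.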

The next test addresses PD-1/PD-L1 (Homo sapiens, UniProt Q9NZQ7). Put plainly: PD-1/PD-L1 biochemical protein-protein interaction assay (ALPHA). Type of test: binding. The settings on record: 0.3 nM His tagged PD-L1, 2.5 nM biotinylated Fc-PD-1, 60 minutes at 25° C., read-out: IC50 PD-L1-PD-1 Alpha IC50-mono PD-L1-fcP-D1. The method, boiled down: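 Final concentrations 0.3 nM His-tagged PD-L1 and 2.5 nM biotinylated Fc-PD-1 (extracellular domains) were reacted with compound for 60 min at 25° C in pH 7.4 Hepes/NaCl/EDTA/Tween/BSA buffer. Binding was then detected by ALPHA beads, and IC50 values were taken from four-parameter curve fitting.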

Chain of PD-1/PD-L1 (Q9NZQ7 19-238 limits assumed): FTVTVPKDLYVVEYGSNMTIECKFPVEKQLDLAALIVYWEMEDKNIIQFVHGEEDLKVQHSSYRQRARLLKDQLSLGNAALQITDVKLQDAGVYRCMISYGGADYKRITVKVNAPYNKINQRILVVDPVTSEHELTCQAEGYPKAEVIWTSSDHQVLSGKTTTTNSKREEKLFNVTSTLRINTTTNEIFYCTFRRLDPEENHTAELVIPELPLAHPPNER
T1 sequence (Q9NZQ7 19-238 limits assumed): as above
T1 sequence (Q9NZQ7 19-238 limits assumed): as above

The term AC50 denotes the concentration giving half of the maximal activity seen. A word on the EC50: it is the concentration that produces a half-maximal response. As a reminder, the IC50 is the point on the concentration scale where inhibition reaches its midpoint. For `Cc1c(COc2cc(OCc3cncc(C#N)c3)c(CNC[C@@H](O)CC(=O)O)cc2Cl)cccc1-c1cccc(-c2ccc3c(c2)c(C)nn3CCNC[C@@H](O)CC(=O)O)c1C` [Example 347, (S)-4-((4-((3′-(1-(2-(((S)-3-carboxy-2-hydroxypropyl)amino)ethyl)-3-methyl-1H-indazol-5-yl)-2,2′-dimethyl-[1,1′-biphenyl]-3-yl)methoxy)-5-chloro-2-((5-cyanopyridin-3-yl)methoxy)benzyl)amino)-3-hydroxybutanoic acid], the AC50 at PD-L1 worked out at 125 nM. The 50% effective concentration (EC50) on PD-1/PD-L1 interaction was determined as 142 nM. For the same molecule, at PD-1/PD-L1, the IC50 was determined as 0.211 nM.
Taken in the same sequence, the figures for `Cc1c(COc2cc(OCc3cncc(C#N)c3)c(CNC[C@@H](O)CC(=O)O)cc2Cl)cccc1-c1cccc(-c2ccc3c(CCNC[C@@H](O)CC(=O)O)coc3c2)c1C` [Example 348, (S)-4-((4-((3′-(3-(2-(((S)-3-carboxy-2-hydroxypropyl)amino)ethyl)benzofuran-6-yl)-2,2′-dimethyl-[1,1′-biphenyl]-3-yl)methoxy)-5-chloro-2-((5-cyanopyridin-3-yl)methoxy)benzyl)amino)-3-hydroxybutanoic acid] were 80.4 nM, 381 nM and 0.122 nM.
For `Cc1c(COc2cc(OCc3cncc(C#N)c3)c(CNC[C@@H](O)CC(=O)O)cc2Cl)cccc1-c1cccc(-c2ncc(COCCNC[C@@H](O)CC(=O)O)s2)c1C` [Example 350, (S)-4-((4-((3′-(5-((2-(((S)-3-carboxy-2-hydroxypropyl)amino)ethoxy)methyl)thiazol-2-yl)-2,2′-dimethyl-[1,1′-biphenyl]-3-yl)methoxy)-5-chloro-2-((5-cyanopyridin-3-yl)methoxy)benzyl)amino)-3-hydroxybutanoic acid] the same measures were 252 nM, 527 nM and 0.105 nM.
Consider `N#Cc1cc(C#N)cc(COc2nc(OCc3cccc(-c4cccc(-c5ccc(OCCNCCO)cc5)c4Cl)c3Cl)c(Cl)cc2CNC[C@@H](O)CC(=O)O)c1` [Example 351, (S)-4-(((5-chloro-6-((2,2′-dichloro-4″-(2-((2-hydroxyethyl)amino)ethoxy)-[1,1′:3′,1″-terphenyl]-3-yl)methoxy)-2-((3,5-dicyanobenzyl)oxy)pyridin-3-yl)methyl)amino)-3-hydroxybutanoic acid], for which the AC50 on PD-L1 was determined as 168 nM. Moreover, the concentration giving a half-maximal response (EC50) at PD-1/PD-L1 interaction came out at 235 nM. The IC50 at PD-1/PD-L1 was 0.982 nM.
In the case of `C[C@@](CO)(NCc1cc(Cl)c(OCc2cccc(-c3cccc(-c4ccc(OCCNCCO)cc4)c3Cl)c2Cl)nc1OCc1cc(C#N)cc(C#N)c1)C(=O)O` [Example 352, (S)-2-(((5-chloro-6-((2,2′-dichloro-4″-(2-((2-hydroxyethyl)amino)ethoxy)-[1,1′:3′,1″-terphenyl]-3-yl)methoxy)-2-((3,5-dicyanobenzyl)oxy)pyridin-3-yl)methyl)amino)-3-hydroxy-2-methylpropanoic acid], the AC50 on PD-L1 was 56.3 nM. Further, the EC50 at PD-1/PD-L1 interaction is 105 nM. Further, the concentration for half-maximal inhibition (IC50) on PD-1/PD-L1 amounted to 0.207 nM.
Regarding `Cc1c(COc2cc(OCc3cncc(C#N)c3)c(CNC[C@@H](O)CC(=O)O)cc2Cl)cccc1-c1cccc(-c2ccc(OC[C@@H](N)CO)cc2)c1C` [Example 353, (S)-4-((4-((4″-((S)-2-amino-3-hydroxypropoxy)-2,2′-dimethyl-[1,1′:3′,1″-terphenyl]-3-yl)methoxy)-5-chloro-2-((5-cyanopyridin-3-yl)methoxy)benzyl)amino)-3-hydroxybutanoic acid], the AC50 on PD-L1 worked out at 215 nM. Moreover, the EC50 at PD-1/PD-L1 interaction came out at 153 nM. Also, on PD-1/PD-L1, the IC50 amounted to 0.311 nM.
Regarding `Cc1c(COc2cc(OCc3cncc(C#N)c3)c(CNC[C@@H](O)CC(=O)O)cc2Cl)cccc1-c1cccc(-c2ccc(O[C@H]3CCCN(CCO)C3)cc2)c1C` [Example 354, (S)-4-((5-chloro-2-((5-cyanopyridin-3-yl)methoxy)-4-((4″-(((S)-1-(2-hydroxyethyl)piperidin-3-yl)oxy)-2,2′-dimethyl-[1,1′:3′,1″-terphenyl]-3-yl)methoxy)benzyl)amino)-3-hydroxybutanoic acid], the AC50 on PD-L1 was 342 nM. Further, on PD-1/PD-L1 interaction, the EC50 was determined as 1880 nM. Also, the IC50 at PD-1/PD-L1 was 0.241 nM.
With `COc1cc(OCc2cccc(-c3cccc(COc4cc(OC)c(CNC[C@@H](O)CC(=O)O)cc4C(F)(F)F)c3C)c2C)c(Cl)cc1CNC[C@@H](O)CC(=O)O` [Example 357, (S)-4-((4-((3′-((4-((((S)-3-carboxy-2-hydroxypropyl)amino)methyl)-2-chloro-5-methoxyphenoxy)methyl)-2,2′-dimethyl-[1,1′-biphenyl]-3-yl)methoxy)-2-methoxy-5-(trifluoromethyl)benzyl)amino)-3-hydroxybutanoic acid], the AC50 at PD-L1 is at least 10000 nM. Moreover, the 50% effective concentration (EC50) on PD-1/PD-L1 interaction came to 202 nM. The IC50 on PD-1/PD-L1 is 0.358 nM.
Take `CNCc1cccc(-c2cccc(-c3cccc(COc4cc(OCc5cncc(C#N)c5)c(CN[C@@](C)(CO)C(=O)O)cc4Cl)c3C)c2C)c1` [Example 358, (S)-2-((5-chloro-2-((5-cyanopyridin-3-yl)methoxy)-4-((2,2′-dimethyl-3″-((methylamino)methyl)-[1,1′:3′,1″-terphenyl]-3-yl)methoxy)benzyl)amino)-3-hydroxy-2-methylpropanoic acid]: on PD-L1, the AC50 came out at 100 nM. Moreover, on PD-1/PD-L1 interaction, the EC50 worked out at 2090 nM. The IC50 at PD-1/PD-L1 stood at 0.137 nM.
Taken in the same sequence, the figures for `Cc1c(COc2cc(OCc3cncc(C#N)c3)c(CNC[C@@H](O)CC(=O)O)cc2Cl)cccc1-c1cccc(-c2ccc3c(CNC[C@@H](O)CC(=O)O)ccc(Cl)c3c2)c1C` [Example 359, (S)-4-(((6-(3′-((4-((((S)-3-carboxy-2-hydroxypropyl)amino)methyl)-2-chloro-5-((5-cyanopyridin-3-yl)methoxy)phenoxy)methyl)-2,2′-dimethyl-[1,1′-biphenyl]-3-yl)-4-chloronaphthalen-1-yl)methyl)amino)-3-hydroxybutanoic acid] were 540 nM, 216 nM and 2.11 nM.
Taken in the same sequence, the figures for `Cc1c(COc2cc(OCc3cncc(C#N)c3)c(CN[C@@](C)(CO)C(=O)O)cc2Cl)cccc1-c1cccc(-c2ccc(CNCCc3c[nH]cn3)cc2)c1C` [Example 360, (S)-2-((4-((4″-(((2-(1H-imidazol-4-yl)ethyl)amino)methyl)-2,2′-dimethyl-[1,1′:3′,1″-terphenyl]-3-yl)methoxy)-5-chloro-2-((5-cyanopyridin-3-yl)methoxy)benzyl)amino)-3-hydroxy-2-methylpropanoic acid] were 224 nM, 520 nM and 1.12 nM.
Consider `Cc1c(COc2cc(OCc3cncc(C#N)c3)c(CN[C@@](C)(CO)C(=O)O)cc2Cl)cccc1-c1cccc(-c2ccc(CN[C@H]3CC[C@H](O)CC3)cc2)c1C` [Example 361, (S)-2-((5-chloro-2-((5-cyanopyridin-3-yl)methoxy)-4-((4″-((((1r,4r)-4-hydroxycyclohexyl)amino)methyl)-2,2′-dimethyl-[1,1′:3′,1″-terphenyl]-3-yl)methoxy)benzyl)amino)-3-hydroxy-2-methylpropanoic acid], for which, on PD-L1, the AC50 came to 138 nM. Besides, the EC50 on PD-1/PD-L1 interaction came to 314 nM. For the same molecule, the IC50 on PD-1/PD-L1 came out at 0.13 nM.
Taken in the same sequence, the figures for `CC(=O)NCCNCc1ccc(-c2cccc(-c3cccc(COc4cc(OCc5cncc(C#N)c5)c(CN[C@@](C)(CO)C(=O)O)cc4Cl)c3C)c2C)cc1` [Example 362, (S)-2-((4-((4″-(((2-acetamidoethyl)amino)methyl)-2,2′-dimethyl-[1,1′:3′,1″-terphenyl]-3-yl)methoxy)-5-chloro-2-((5-cyanopyridin-3-yl)methoxy)benzyl)amino)-3-hydroxy-2-methylpropanoic acid] were 108 nM, 221 nM and 0.104 nM.
For `Cc1c(COc2cc(OCc3cncc(C#N)c3)c(CN[C@@](C)(CO)C(=O)O)cc2Cl)cccc1-c1cccc(-c2ccc(CNC3CNC(=O)C3)cc2)c1C` (stereo partly drawn) [Example 363, (2S)-2-((5-chloro-2-((5-cyanopyridin-3-yl)methoxy)-4-((2,2′-dimethyl-4″-(((5-oxopyrrolidin-3-yl)amino)methyl)-[1,1′:3′,1″-terphenyl]-3-yl)methoxy)benzyl)amino)-3-hydroxy-2-methylpropanoic acid] the same measures were 171 nM, 168 nM and 0.081 nM.
For `Cc1c(COc2cc(OCc3cncc(C#N)c3)c(CN[C@@](C)(CO)C(=O)O)cc2Cl)cccc1-c1cccc(-c2ccc(OCCc3cccnc3)c(CNCCO)c2)c1C` [Example 364, (S)-2-((5-chloro-2-((5-cyanopyridin-3-yl)methoxy)-4-((3″-(((2-hydroxyethyl)amino)methyl)-2,2′-dimethyl-4″-(2-(pyridin-3-yl)ethoxy)-[1,1′:3′,1″-terphenyl]-3-yl)methoxy)benzyl)amino)-3-hydroxy-2-methylpropanoic acid], at PD-L1, the AC50 is 98.3 nM. Further, the half-maximal effective concentration (EC50) on PD-1/PD-L1 interaction came to 353 nM. Moreover, on PD-1/PD-L1, the IC50 amounted to 0.304 nM.
